Legend:
ECHCG [1] = test: Post-emergence herbicidal action, ECHCG; format: in vivo; settings: 80 g/ha, Table C
Procedure, shortened: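 Weed and crop plants grown in sandy loam in the greenhouse, treated at the one-leaf stage 2–3 weeks after sowing. Damage scored visually after about 3 weeks vs untreated controls (0% = control, 100% = dead).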

Setaria viridis [2] = test: Post-emergence herbicidal action, SETVI; format: in vivo
Procedure, shortened: (§1)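 Greenhouse-grown plants were sprayed at the one-leaf stage, 2–3 weeks after sowing. Damage was scored visually after about 3 weeks against untreated controls, as % action (100% = dead, 0% = like control).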

Cyperus serotinus = test: Pre-emergence herbicidal action, CYPES; format: in vivo
Procedure, shortened: (§2)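 Percent herbicidal activity rated by eye 3 weeks after pre-emergence soil-surface application, compared with untreated pots. Seeds sat under sandy loam; sprays carried 0.2% wetting agent.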

Viola tricolor [3] = test: Pre-emergence herbicidal action, VIOTR; format: in vivo
Procedure, shortened: as §2

Matricaria inodora [4] = test: Pre-emergence herbicidal action, MATIN; format: in vivo; settings: for Herbicidal efficacy against MATIN: Table K
Procedure, shortened: as §2

Amaranthus retroflexus [5] = test: Post-emergence herbicidal action, AMARE; format: in vivo; settings: 80 g/ha, Table D
Procedure, shortened: as §1

Avena fatua [6] = test: Pre-emergence herbicidal action, AVEFA; format: in vivo
Procedure, shortened: as §2

Abutilon theophrasti [7] = test: Pre-emergence herbicidal action, ABUTH; format: in vivo
Procedure, shortened: as §2

ECHCG [8] = test: Pre-emergence herbicidal action, ECHCG; format: in vivo, Echinochloa crus-galli
Veronica persica = test: Pre-emergence herbicidal action, VERPE; format: in vivo; settings: comparison with WO 2011035874, Table H
Excerpt: (§3) 1. Pre-Emergence Herbicidal Action Against Harmful Plants Seeds of monocotyledonous and dicotyledonous weed plants and crop plants are laid out in sandy loam soil in wood-fiber pots and covered with soil. The compounds of the invention, formulated in the form of wettable powders (WP) or as emulsion concentrates (EC), are then applied to the surface of the covering soil in the form of an aqueous suspension or emulsion at a water application rate equating to […], with addition of 0.2% wetting agent. After the treatment, the pots are placed in a greenhouse and kept under good growth conditions for the trial plants. The damage to the test plants is scored visually after a test period of 3 weeks by comparison with untreated controls (herbicidal activity in percent (%): 100% activity=the plants have died, 0% activity=like control plants).
(§4) For comparison, the herbicidal activity of numerous compounds according to the invention was tested with the structurally closest compounds known from the documents WO 2011/035874, WO 2012/028579 and WO 2012/126932, by the pre- and post-emergence method.

Avena fatua [9] = test: Post-emergence herbicidal action, AVEFA; format: in vivo
Procedure, shortened: as §1

Stellaria media [10] = test: Pre-emergence herbicidal action, STEME; format: in vivo; settings: for Herbicidal efficacy against STEME: comparison with WO 2011035874, Table H
Procedure, shortened: as §2

Abutilon theophrasti [11] = test: Post-emergence herbicidal action, ABUTH; format: in vivo; settings: 80 g/ha
Procedure, shortened: as §1

Alopecurus myosuroides [12] = test: Pre-emergence herbicidal action, ALOMY; format: in vivo
Procedure, shortened: as §2

Setaria viridis [13] = test: Pre-emergence herbicidal action, SETVI; format: in vivo
Procedure, shortened: as §2

Alopecurus myosuroides [14] = test: Post-emergence herbicidal action, ALOMY; format: in vivo
Procedure, shortened: as §1

Stellaria media [15] = test: Post-emergence herbicidal action, STEME; format: in vivo
Procedure, shortened: as §1

Polygonum convolvulus = test: Pre-emergence herbicidal action, POLCO; format: in vivo
Procedure, shortened: as §2

Viola tricolor [16] = test: Post-emergence herbicidal action, VIOTR; format: in vivo
Procedure, shortened: as §1

Amaranthus retroflexus [17] = test: Pre-emergence herbicidal action, AMARE; format: in vivo; settings: for Herbicidal efficacy against AMARE: comparison with WO 2011035874, Table H
Procedure, shortened: as §2

Pharbitis purpureum = test: Post-emergence herbicidal action, PHBPU; format: in vivo; settings: 80 g/ha
Procedure, shortened: as §1

ECHCG [18] = test: Pre-emergence herbicidal action, ECHCG; format: in vivo; settings: comparison with WO 2011035874, Table G
Excerpt: as §3

Matricaria inodora [19] = test: Post-emergence herbicidal action, MATIN; format: in vivo; settings: 80 g/ha, comparison with WO2011035874, Table F
Description: Seeds of monocotyledonous and dicotyledonous weed and crop plants are laid out in sandy loam soil in wood-fiber pots, covered with soil and cultivated in a greenhouse under good growth conditions. 2 to 3 weeks after sowing, the test plants are treated at the one-leaf stage. The compounds of the invention, formulated in the form of wettable powders (WP) or as emulsion concentrates (EC), are then sprayed onto the green parts of the plants in the form of an aqueous suspension or emulsion at a water application rate equating to […], with addition of 0.2% wetting agent. After the test plants have been left to stand in the greenhouse under optimal growth conditions for about 3 weeks, the action of the preparations is assessed visually in comparison to untreated controls (herbicidal action in percent (%): 100% activity=the plants have died, 0% activity=like control plants). […] At the same time, inventive compounds leave Gramineae crops such as barley, wheat, rye, millet/sorghum, corn or rice virtually undamaged when applied post-emergence, even at high active compound dosages. In addition, some substances are also harmless to dicotyledonous crops such as soya, cotton, oilseed rape, sugar beet or potatoes. Some of the compounds according to the invention have high selectivity and are therefore suitable for controlling unwanted vegetation in agricultural crops by the post-emergence method. The data of Tables C and D below illustrate, in an exemplary manner, the […] herbicidal action of the compounds according to the invention, the herbicidal activity being stated in percent.
as §4

[20] = 80 g/ha, comparison with WO 2011035874, Table G
[21] = dosage 320 g/ha, scored visually after 3 weeks vs untreated controls
[22] = 80 g/ha, comparison with WO 2011035874, Table H
[23] = comparison with WO2011035874, Table F
[24] = 80 g/ha, comparison with WO2011035874, Table F
[25] = 320 g/ha, comparison with WO 2011035874, Table G
[26] = 320 g/ha, comparison with WO 2011035874, Table H

SMILES: Cn1nnnc1NC(=O)c1ccc(C(F)F)c(S(C)(=O)=O)c1Cl [Example 1-51]
- Herbicidal activity ECHCG (ECHCG [1]): 100%
- Herbicidal efficacy against SETVI (Setaria viridis [2]; 5 g/ha): 90
- Herbicidal efficacy against SETVI (Setaria viridis [2]; 20 g/ha): 100
- Herbicidal efficacy against SETVI (Setaria viridis [2]; 80 g/ha): 100
- herbicidal activity SETVI (Setaria viridis [2]; 80 g/ha, Table C): 100%
- Herbicidal efficacy against CYPES (Cyperus serotinus; 20 g/ha): 90
- Herbicidal efficacy against CYPES (Cyperus serotinus; 80 g/ha): 90
- Herbicidal efficacy against CYPES (Cyperus serotinus; [20]): 0%
- Herbicidal efficacy against CYPES (Cyperus serotinus; 320 g/ha): 100
- herbicidal activity CYPES (Cyperus serotinus; [21]): 100%
- Herbicidal efficacy against VIOTR (Viola tricolor [3]; [22]): 60%
- Herbicidal efficacy against VIOTR (Viola tricolor [3]; dosage 20 g/ha, Table K): 100
- Herbicidal efficacy against VIOTR (Viola tricolor [3]; dosage 80 g/ha, Table K): 100
- Herbicidal efficacy against VIOTR (Viola tricolor [3]; dosage 320 g/ha, Table K): 100
- herbicidal activity VIOTR (Viola tricolor [3]; [21]): 100%
- Herbicidal efficacy against MATIN (Matricaria inodora [4]; dosage 20 g/ha): 90
- Herbicidal efficacy against MATIN (Matricaria inodora [4]; dosage 80 g/ha): 100
- Herbicidal efficacy against MATIN (Matricaria inodora [4]; dosage 320 g/ha): 100
- herbicidal activity MATIN (Matricaria inodora [4]; [21]): 100%
- herbicidal activity AMARE (Amaranthus retroflexus [5]): 100%
- Herbicidal efficacy against AVEFA (Avena fatua [6]; 80 g/ha): 90
- Herbicidal efficacy against AVEFA (Avena fatua [6]; [20]): 0%
- Herbicidal efficacy against AVEFA (Avena fatua [6]; 320 g/ha): 100
- herbicidal activity AVEFA (Avena fatua [6]; [21]): 100%
- Herbicidal efficacy against ABUTH (Abutilon theophrasti [7]; [20]): 100%
- Herbicidal efficacy against ABUTH (Abutilon theophrasti [7]; dosage 20 g/ha, Table K): 100
- Herbicidal efficacy against ABUTH (Abutilon theophrasti [7]; dosage 80 g/ha, Table K): 100
- Herbicidal efficacy against ABUTH (Abutilon theophrasti [7]; dosage 320 g/ha, Table K): 100
- herbicidal activity ABUTH (Abutilon theophrasti [7]; [21]): 100%
- Herbicidal efficacy against ECHCG (ECHCG [8]; 20 g/ha): 100
- Herbicidal efficacy against ECHCG (ECHCG [8]; 80 g/ha): 100
- Herbicidal efficacy against ECHCG (ECHCG [8]; 320 g/ha): 100
- Herbicidal efficacy against VERPE (Veronica persica; 80 g/ha): 100%
- Herbicidal efficacy against AVEFA (Avena fatua [9]; 5 g/ha): 60
- Herbicidal efficacy against AVEFA (Avena fatua [9]; 20 g/ha): 90
- Herbicidal efficacy against AVEFA (Avena fatua [9]; 80 g/ha): 100
- herbicidal activity AVEFA (Avena fatua [9]; 80 g/ha, Table C): 100%
- Herbicidal efficacy against STEME (Stellaria media [10]; 80 g/ha): 90%
- Herbicidal activity STEME (Stellaria media [10]; [21]): 100%
- herbicidal activity ABUTH (Abutilon theophrasti [11]; Table D): 100%
- Herbicidal efficacy against ABUTH (Abutilon theophrasti [11]; [23]): 80%
- Herbicidal efficacy against ALOMY (Alopecurus myosuroides [12]; 20 g/ha): 80
- Herbicidal efficacy against ALOMY (Alopecurus myosuroides [12]; 80 g/ha): 100
- Herbicidal efficacy against ALOMY (Alopecurus myosuroides [12]; [20]): 10%
- Herbicidal efficacy against ALOMY (Alopecurus myosuroides [12]; 320 g/ha): 100
- herbicidal activity ALOMY (Alopecurus myosuroides [12]; [21]): 100%
- Herbicidal efficacy against SETVI (Setaria viridis [13]; 20 g/ha): 100
- Herbicidal efficacy against SETVI (Setaria viridis [13]; 80 g/ha): 100
- Herbicidal efficacy against SETVI (Setaria viridis [13]; [20]): 60%
- Herbicidal efficacy against SETVI (Setaria viridis [13]; 320 g/ha): 100
- herbicidal activity SETVI (Setaria viridis [13]; [21]): 100%
- Herbicidal efficacy against ALOMY (Alopecurus myosuroides [14]; 5 g/ha): 40
- Herbicidal efficacy against ALOMY (Alopecurus myosuroides [14]; 20 g/ha): 90
- Herbicidal efficacy against ALOMY (Alopecurus myosuroides [14]; 80 g/ha): 100
- herbicidal activity ALOMY (Alopecurus myosuroides [14]; 80 g/ha, Table C): 100%
- Herbicidal efficacy against STEME (Stellaria media [15]; 5 g/ha): 100
- Herbicidal efficacy against STEME (Stellaria media [15]; 20 g/ha): 100
- Herbicidal efficacy against STEME (Stellaria media [15]; 80 g/ha): 100
- Herbicidal activity STEME (Stellaria media [15]; 80 g/ha, Table D): 100%
- Herbicidal efficacy against STEME (Stellaria media [15]; [24]): 40%
- Herbicidal efficacy against POLCO (Polygonum convolvulus; [22]): 0%
- Herbicidal efficacy against POLCO (Polygonum convolvulus; dosage 20 g/ha, Table K): 30
- Herbicidal efficacy against POLCO (Polygonum convolvulus; dosage 80 g/ha, Table K): 80
- Herbicidal efficacy against POLCO (Polygonum convolvulus; dosage 320 g/ha, Table K): 90
- Herbicidal efficacy against VIOTR (Viola tricolor [16]; 5 g/ha): 100
- Herbicidal efficacy against VIOTR (Viola tricolor [16]; 20 g/ha): 100
- Herbicidal efficacy against VIOTR (Viola tricolor [16]; 80 g/ha): 100
- herbicidal activity VIOTR (Viola tricolor [16]; 80 g/ha, Table D): 100%
- Herbicidal efficacy against AMARE (Amaranthus retroflexus [17]; 80 g/ha): 100%
- herbicidal activity AMARE (Amaranthus retroflexus [17]; [21]): 100%
- Herbicidal activity PHBPU (Pharbitis purpureum; Table D): 100%
- Herbicidal efficacy against ECHCG (ECHCG [18]; 80 g/ha): 30%

SMILES: CC[S+]([O-])c1c(C(F)F)ccc(C(=O)Nc2nnnn2C)c1I (stereo not drawn) [Example 1-77]
- Herbicidal efficacy against CYPES (Cyperus serotinus; [25]): 30%
- Herbicidal efficacy against VIOTR (Viola tricolor [3]; [26]): 60%
- Herbicidal efficacy against AVEFA (Avena fatua [6]; [25]): 0%
- Herbicidal efficacy against ABUTH (Abutilon theophrasti [7]; [25]): 100%
- Herbicidal efficacy against VERPE (Veronica persica; 320 g/ha): 90%
- Herbicidal efficacy against MATIN (Matricaria inodora [19]): 0%
- Herbicidal efficacy against STEME (Stellaria media [10]; 320 g/ha): 80%
- Herbicidal efficacy against ALOMY (Alopecurus myosuroides [12]; [25]): 10%
- Herbicidal efficacy against SETVI (Setaria viridis [13]; [25]): 20%
- Herbicidal efficacy against STEME (Stellaria media [15]; [24]): 80%
- Herbicidal efficacy against POLCO (Polygonum convolvulus; [26]): 30%
- Herbicidal efficacy against VIOTR (Viola tricolor [16]; [24]): 60%
- Herbicidal efficacy against AMARE (Amaranthus retroflexus [17]; 320 g/ha): 100%
- Herbicidal efficacy against PHBPU (Pharbitis purpureum; [23]): 40%
- Herbicidal efficacy against ECHCG (ECHCG [18]; 320 g/ha): 70%

Source: US20230183193A1, “4-DIFLUOROMETHYL BENZOYL AMIDES WITH HERBICIDAL ACTION” (BAYER CROPSCIENCE AKTIENGESELLSCHAFT, priority 2017, published 2023)
